Legend:
[1] = tested on: endogenous nuclear receptors in CV-1 cells; experiment: CV-1 Native Receptors Transcription Assay (MKNRCV1), Test C; format: cell-based, African green monkey; conditions: for MKNRCV1 % BRL @ 25 μM / MKNRCV1 % BRL @ 5 μM: percent activity of BRL 49653; for EC50: Chlorocebus sabaeus, CV-1 cells, 48 hours, unit inferred; for MKNRCV1 % BRL @ 5 μM: 5 μM (stated in the cell)
[2] = tested on: CV-1 cells (FATP promoter luciferase reporter, 300 nM BRL); experiment: ANTCV1 Antagonist Transcription Assay, Test B; format: cell-based, African green monkey; conditions: Chlorocebus sabaeus, 25 μM test compound with 300 nM BRL, 48 hrs, % BRL inhibition, read-out: ANTCV1 INHIB @ 25 μM
3T3-L1 preadipocytes = experiment: 3T3-L1 Adipocyte Differentiation Assay (ADPDIFF), Test A; format: cell-based; conditions: BODIPY lipid fluorescence, reported as % of BRL 49653 at 5 μM
Protocol: Cells are replenished with FBS containing media on day 5 of post-drug treatment and incubated for additional 4-6 days. Cells are stained with BODIPY a fluorescent lipophilic stain to quantitate the lipid content of the cells. The assay is optimized for a 96-well plate format. Approximately after 10 days of post-drug treatment, cells are fixed in 3% formalin solution for 15 min followed by staining with BODIPY (80 μg/ml) for 20 min at room temperature. The plate is then put through the CYTOFLUOR instrument to measure the fluorescence of BODIPY (excitation=485/20; emission=530/25).

| SMILES | MKNRCV1 % BRL @ 25 μM [1] | inhibition at 25 µM [2] | ADPDIFF % BRL @ 5 μM (3T3-L1 preadipocytes) | EC50 [1] | MKNRCV1 % BRL @ 5 μM [1] |
| --- | --- | --- | --- | --- | --- |
| CC(=O)c1c(C(C)=O)c(C)n([C@@H](Cc2ccc(OCCc3nc(-c4ccccc4)oc3C)cc2)C(=O)O)c1C | 24 % BRL | 3% | 0 % BRL |  |  |
| Cc1oc(-c2ccccc2)nc1CCOc1ccc(C[C@@H](C(=O)NS(C)(=O)=O)n2cccc2)cc1 | 97 % BRL | -30% | 110 % BRL | 3200 nM |  |
| CN(C/C=C/c1ccc(C[C@@H](C(=O)O)n2cccc2)cc1)c1ccccn1 | 92 % BRL | -36% | 94 % BRL | 900 nM |  |
| Cc1ccc(C)n1[C@@H](Cc1ccc(OCc2ccccc2F)cc1)C(=O)O | 34 % BRL |  | 2 % BRL |  |  |
| Cc1oc(-c2ccccc2)nc1CCOc1ccc([C@@H](C(=O)O)n2cccc2)cc1 | 57 % BRL | 39% |  | 3600 nM | 47 % BRL |
| Cc1oc(-c2ccccc2)nc1CCOc1ccc(C[C@@H](c2nnco2)n2cccc2)cc1 |  | 49% | 45 % BRL |  | 37 @ 5 μM % BRL |
| Cc1oc(-c2ccccc2)nc1CCOc1ccc(C[C@@H](C(=O)O)n2c(C)cc(Cl)c2C)cc1 | 55 % BRL | 5% | 28 % BRL |  |  |
| Cc1oc(-c2ccccc2)nc1CCOc1ccc(CC(C(=O)O)c2ccncc2)cc1 (stereo not shown) | 20 % BRL | 55% | 2 % BRL |  |  |
| Cc1ccc(-c2ccccc2)n1[C@@H](Cc1ccc(OCc2ccccc2F)cc1)C(=O)O | 30 % BRL | -44% | 2 % BRL |  |  |
| Cc1cc(-c2cc(O)c(Sc3cccc(C(=O)O)c3)oc2=O)ccc1OCc1ccccc1 |  | -29% |  |  | 26 @ 5 μM % BRL |
| Cc1oc(-c2ccccc2)nc1CCC(=O)c1ccc(CC(C(=O)O)n2cccc2)cc1 (stereo not shown) [drawing 276] |  |  | 3 % BRL |  |  |
| Cc1cc(OCCc2nc(-c3ccccc3)oc2C)ccc1CC(C(=O)O)c1ccccc1 (stereo not shown) |  |  |  | 1000 nM |  |
| Cc1oc(-c2ccccc2)nc1CCOc1ccc(CC(C(=O)O)N2CCCC2=O)cc1 (stereo not shown) | 29 % BRL | -94% | 0 % BRL |  |  |
| Cc1nc(-c2ccc(C(F)(F)F)cc2)sc1CSc1ccc(OCC(=O)O)cc1 | 70 % BRL | -58% |  |  |  |
| Cc1sc(-c2ccccc2)nc1CCOc1ccc(C[C@@H](C(=O)O)n2cccc2)cc1 [drawing 269] | 76 % BRL | -20% | 92 % BRL | 9200 nM |  |
| O=C(c1ccn(C(Cc2ccc(OCc3ccccc3F)cc2)C(=O)O)c1)C1CCCCC1 (stereo not shown) | 28 % BRL | 1% | 12 % BRL |  |  |
| Cc1oc(-c2ccccc2)nc1CC#Cc1ccc(CC(C(=O)O)c2ccc(-c3ccccc3)cc2)cc1 (stereo not shown) |  | -21% |  | 2700 nM | 86 @ 5 μM % BRL |
| CN(CCOc1ccc(CC(C(=O)O)n2ccc(-c3ccccc3)c2)cc1)c1nc2ccccc2o1 (stereo not shown) | 59 % BRL | -41% | 113 % BRL |  |  |
| COC(=O)[C@H](Cc1ccc(CCCN(C)c2ccccc2)cc1)n1cccc1 | 71 % BRL | -2% | 73 % BRL |  |  |
| CC(=O)c1cc(C)n([C@@H](Cc2ccc(OCCc3oc(-c4ccccc4)nc3C)cc2)C(=O)O)c1C | 27 % BRL | -15% | 0 % BRL |  |  |
| O=C(O)[C@H](Cc1ccc(OCCn2c(-c3ccccc3)nc3ccccc32)cc1)n1cccc1 | 39 % BRL | -69% | 19 % BRL |  |  |
| Cc1oc(-c2ccccc2)nc1CC#Cc1ccc(CC(C(=O)O)c2cccnc2)cc1 (stereo not shown) |  | -15% |  | 34000 nM | 49 @ 5 μM % BRL |

| SMILES | MKNRCV1 % BRL @ 25 μM [1] | inhibition at 25 µM [2] | ADPDIFF % BRL @ 5 μM (3T3-L1 preadipocytes) | EC50 [1] | MKNRCV1 % BRL @ 5 μM [1] |
| --- | --- | --- | --- | --- | --- |
| Cc1oc(-c2ccccc2)nc1CCOc1ccc(CC(C(=O)O)c2cccs2)cc1 (stereo not shown) | 111 % BRL | -127% | 88 % BRL |  |  |
| Cc1oc(-c2ccccc2)nc1CCOc1ccc(CC(C(=O)O)n2ccc(C(=O)C(C)C)c2)cc1 (stereo not shown) | 70 % BRL | -10% | 120 % BRL | 23600 nM |  |
| O=C(O)[C@H](Cc1ccc(OCCN2CCN(c3ccccc3)CC2)cc1)n1cccc1 | 32 % BRL | -40% | 82 % BRL |  |  |
| Cc1oc(-c2ccccc2)nc1CCOc1ccc(CC(C(=O)O)n2ccc(-c3ccccc3)c2)cc1 (stereo not shown) | 54 % BRL | 29% | 125 % BRL | 900 nM |  |
| O=C(O)[C@H](Cc1ccc(OCc2ccccc2F)cc1)n1cccc1C(=O)C(F)(F)F | 18 % BRL | 28% | 14 % BRL |  |  |
| Cc1oc(-c2ccccc2)nc1CCOc1ccc(CC(C)(C(=O)O)n2cccc2)cc1 (stereo not shown) | 87 % BRL | -80.3% | 117 % BRL | 2000 nM |  |
| Cc1oc(-c2ccccc2)nc1CCOc1ccc(C[C@H](C(=O)O)c2ccccc2)cc1 | 50 % BRL | -44% | 31 % BRL |  |  |
| Cc1oc(-c2ccccc2)nc1CCOc1ccc(C[C@@H](C(=O)O)n2c(C)ccc2-c2ccccc2)cc1 | 24 % BRL | -3% | 2 % BRL |  |  |
| Cc1oc(-c2ccccc2)nc1C/C=C/c1ccc(C[C@@H](C(=O)O)n2cccc2)cc1 | 94 % BRL |  | 76 % BRL |  |  |
| Cc1oc(-c2ccccc2)nc1CCOc1ccc(CC(C(=O)O)c2ccccc2)cn1 (stereo not shown) [drawing 262] |  |  |  | 1200 nM |  |
| Cc1oc(-c2ccccc2)nc1CCOc1ccc(CC(C(=O)O)c2ccccc2)cn1 (stereo not shown) [drawing 309] |  | -58% |  |  | 75 @ 5 μM % BRL |
| Cc1oc(-c2ccccc2)nc1CCNc1ccc(C[C@@H](C(=O)O)n2cccc2)cc1 | 157 % BRL |  |  |  |  |
| Cc1oc(-c2ccccc2)nc1CCOc1ccc(C[C@H](C(=O)O)n2cccc2)cc1 |  |  | 96 % BRL |  | 87 @ 5 μM % BRL |
| Cc1oc(-c2ccccc2)nc1CCOc1ccc([C@@H](C(=O)O)n2cccc2C(=O)c2ccccc2)cc1 | 58 % BRL | -5% |  |  | 39 % BRL |
| Cc1oc(-c2ccccc2)nc1CCOc1ccc(CC[C@@H](C(=O)O)n2cccc2)cc1 |  | 62% |  | 1300 nM | 82 @ 5 μM % BRL |
| Cc1oc(-c2ccccc2)nc1CCOc1ccc(CC(C(=O)O)c2nc(-c3ccccc3)oc2C)cc1 (stereo not shown) [drawing 261] |  | 18% |  |  | 110 @ 5 μM % BRL |
| Cc1oc(-c2ccccc2)nc1CCOc1ccc(C[C@@H](C(=O)O)n2cccc2)cc1 |  |  |  |  | 83 @ 5 μM % BRL |
| CN(CCCc1ccc(C[C@@H](C(=O)O)n2cccc2)cc1)c1ccccn1 | 64 % BRL |  | 113 % BRL |  |  |
| CN(C/C=C/c1ccc(C[C@@H](C(=O)O)n2cccc2)cc1)c1ccccc1 | 79 % BRL | -29% |  | 1700 nM |  |
| Cc1oc(-c2ccccc2)nc1CC#Cc1ccc(CC(C(=O)O)c2cccc(-c3ccccc3)c2)cc1 (stereo not shown) |  | -3% |  |  | 48 @ 5 μM % BRL |
| Cc1oc(-c2ccccc2)nc1CCCc1ccc(CC(C(=O)O)c2ccccc2)cc1 (stereo not shown) | 0.1122 % BRL |  |  |  |  |

Source: patent publication US20030171377A1, “Antidiabetic agents” (priority 2001, published 2003)
